Consider three molecules from US20220009920A1 (GB005, Inc., priority 2020, published 2022).

Usually inhibition stands for the drop in the measured response relative to a control, in per cent.

Holding throughout (assay): Large panel kinase profiling
Common to all, as to format: biochemical
Holding throughout (conditions): 1 μM test article, 1 mM ATP

Experiment [1] has as its target ABL1 (Homo sapiens, UniProt P00519). Summed up: (§1)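 At 30° C., kinases turned over a CSox-Sensor peptide substrate with 1 mM ATP while 1 μM test article was present. Progress was followed by kinetic fluorescence readings.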
The target of experiment [2] is T1, CDK5/P35 (Homo sapiens, UniProt Q00535).
T1 construct: AssayQuant Technologies, Inc. (ran the panel)
T1 sequence (Q00535 whole entry, species assumed): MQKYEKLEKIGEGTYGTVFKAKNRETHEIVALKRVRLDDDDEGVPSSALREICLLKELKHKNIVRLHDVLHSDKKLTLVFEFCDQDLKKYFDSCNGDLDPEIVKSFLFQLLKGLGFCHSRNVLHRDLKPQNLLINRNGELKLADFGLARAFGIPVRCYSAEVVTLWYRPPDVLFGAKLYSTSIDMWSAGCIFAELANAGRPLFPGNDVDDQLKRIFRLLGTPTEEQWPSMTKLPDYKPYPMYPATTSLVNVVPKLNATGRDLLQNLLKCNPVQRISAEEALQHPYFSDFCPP
T1 sequence (Q15078 2-307 partner limits assumed, species assumed): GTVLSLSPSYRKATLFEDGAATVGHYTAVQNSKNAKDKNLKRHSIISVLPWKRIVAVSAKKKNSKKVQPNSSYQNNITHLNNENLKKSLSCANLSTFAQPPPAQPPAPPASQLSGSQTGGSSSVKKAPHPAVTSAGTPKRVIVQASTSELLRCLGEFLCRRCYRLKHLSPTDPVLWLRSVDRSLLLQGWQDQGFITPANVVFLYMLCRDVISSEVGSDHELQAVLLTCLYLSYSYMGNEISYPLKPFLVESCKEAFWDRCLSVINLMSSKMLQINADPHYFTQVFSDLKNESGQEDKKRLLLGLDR
The essentials:
as §1

Experiment [3] addresses T2, EPHA8 (Homo sapiens, UniProt P29322).
T2 sequence (P29322 28-1005): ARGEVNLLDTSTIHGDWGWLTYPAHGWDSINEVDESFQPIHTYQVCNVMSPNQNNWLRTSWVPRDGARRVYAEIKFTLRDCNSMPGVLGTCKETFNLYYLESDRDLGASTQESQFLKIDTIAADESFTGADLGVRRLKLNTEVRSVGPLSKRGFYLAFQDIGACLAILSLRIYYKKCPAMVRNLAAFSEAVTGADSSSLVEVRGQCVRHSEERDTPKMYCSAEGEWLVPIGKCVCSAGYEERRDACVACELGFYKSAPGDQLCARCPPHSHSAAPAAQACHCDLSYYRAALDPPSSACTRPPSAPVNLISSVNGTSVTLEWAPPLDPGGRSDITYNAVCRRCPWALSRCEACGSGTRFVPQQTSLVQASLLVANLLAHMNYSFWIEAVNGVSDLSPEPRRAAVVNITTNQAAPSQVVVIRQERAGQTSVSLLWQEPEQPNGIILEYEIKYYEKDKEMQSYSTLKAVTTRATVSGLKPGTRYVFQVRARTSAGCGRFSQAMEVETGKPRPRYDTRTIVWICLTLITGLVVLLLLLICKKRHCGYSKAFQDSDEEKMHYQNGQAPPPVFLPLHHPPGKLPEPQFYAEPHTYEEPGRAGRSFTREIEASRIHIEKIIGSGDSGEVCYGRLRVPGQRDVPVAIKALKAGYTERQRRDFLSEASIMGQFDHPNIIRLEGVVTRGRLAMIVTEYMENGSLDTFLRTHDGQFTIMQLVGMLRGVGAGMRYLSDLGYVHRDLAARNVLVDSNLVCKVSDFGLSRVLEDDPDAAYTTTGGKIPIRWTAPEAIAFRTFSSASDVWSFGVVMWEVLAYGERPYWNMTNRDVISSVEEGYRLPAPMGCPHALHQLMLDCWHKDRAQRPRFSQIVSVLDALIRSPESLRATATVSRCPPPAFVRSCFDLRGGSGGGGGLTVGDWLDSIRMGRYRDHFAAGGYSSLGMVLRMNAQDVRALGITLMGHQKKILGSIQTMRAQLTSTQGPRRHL
Summed up: as §1

Experiment [4] addresses T3, NEK9 (Homo sapiens, UniProt Q8TD19).
T3 construct: AssayQuant Technologies, Inc. (assay service)
T3 sequence (Q8TD19 1-979): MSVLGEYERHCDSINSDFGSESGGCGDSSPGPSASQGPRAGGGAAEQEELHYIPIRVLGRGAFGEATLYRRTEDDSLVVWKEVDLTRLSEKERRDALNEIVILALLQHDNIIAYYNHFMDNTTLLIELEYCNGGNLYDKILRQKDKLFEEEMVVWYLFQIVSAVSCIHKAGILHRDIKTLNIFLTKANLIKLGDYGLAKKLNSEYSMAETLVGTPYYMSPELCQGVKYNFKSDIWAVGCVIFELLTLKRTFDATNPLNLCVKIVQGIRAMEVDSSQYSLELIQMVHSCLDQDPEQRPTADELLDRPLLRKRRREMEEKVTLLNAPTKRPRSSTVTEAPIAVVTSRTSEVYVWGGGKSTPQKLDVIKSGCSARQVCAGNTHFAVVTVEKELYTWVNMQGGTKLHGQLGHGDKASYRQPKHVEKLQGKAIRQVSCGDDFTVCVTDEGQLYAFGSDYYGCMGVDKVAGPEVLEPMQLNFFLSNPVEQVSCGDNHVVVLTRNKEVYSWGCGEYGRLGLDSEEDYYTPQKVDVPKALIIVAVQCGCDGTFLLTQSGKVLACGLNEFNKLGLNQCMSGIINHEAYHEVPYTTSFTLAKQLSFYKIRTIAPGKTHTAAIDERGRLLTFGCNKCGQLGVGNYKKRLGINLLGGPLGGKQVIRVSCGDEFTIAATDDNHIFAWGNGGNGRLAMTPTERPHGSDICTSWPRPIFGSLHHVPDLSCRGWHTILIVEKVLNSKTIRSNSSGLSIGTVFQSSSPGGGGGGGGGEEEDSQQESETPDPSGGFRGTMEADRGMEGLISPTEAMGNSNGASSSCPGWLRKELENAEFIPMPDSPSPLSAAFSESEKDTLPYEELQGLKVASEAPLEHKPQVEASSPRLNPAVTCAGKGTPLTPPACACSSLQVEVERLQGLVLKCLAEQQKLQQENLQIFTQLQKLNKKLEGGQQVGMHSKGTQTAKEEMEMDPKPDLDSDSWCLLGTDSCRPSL
Summed up: as §1

Experiment [5] deals with T4, PHKG2 (Homo sapiens, UniProt P15735).
T4 sequence (P15735 1-406): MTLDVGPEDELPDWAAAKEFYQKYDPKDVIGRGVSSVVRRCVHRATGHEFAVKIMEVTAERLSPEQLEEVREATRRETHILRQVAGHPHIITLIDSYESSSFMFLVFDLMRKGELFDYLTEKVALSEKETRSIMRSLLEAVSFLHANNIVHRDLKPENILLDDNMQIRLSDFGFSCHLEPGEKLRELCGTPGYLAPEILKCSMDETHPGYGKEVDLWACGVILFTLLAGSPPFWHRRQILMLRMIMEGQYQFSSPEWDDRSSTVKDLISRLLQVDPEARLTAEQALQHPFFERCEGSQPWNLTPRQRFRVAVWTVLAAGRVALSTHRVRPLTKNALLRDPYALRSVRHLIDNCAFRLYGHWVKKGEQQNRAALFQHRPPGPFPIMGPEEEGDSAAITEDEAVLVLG
Summed up: as §1

The target in experiment [6] is PIM2 (Homo sapiens, UniProt Q9P1W9). Summed up:
as §1

PIM2, sequence (Q9P1W9 whole entry, species assumed): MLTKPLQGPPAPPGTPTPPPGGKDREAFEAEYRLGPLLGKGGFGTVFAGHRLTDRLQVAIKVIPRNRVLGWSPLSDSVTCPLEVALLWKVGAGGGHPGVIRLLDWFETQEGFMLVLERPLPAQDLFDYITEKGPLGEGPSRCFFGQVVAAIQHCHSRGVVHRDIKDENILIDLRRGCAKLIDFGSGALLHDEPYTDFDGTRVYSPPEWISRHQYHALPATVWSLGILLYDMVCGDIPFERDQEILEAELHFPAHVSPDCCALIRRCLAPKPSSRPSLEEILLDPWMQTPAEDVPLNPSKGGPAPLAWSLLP
ABL1, sequence (P00519 whole entry): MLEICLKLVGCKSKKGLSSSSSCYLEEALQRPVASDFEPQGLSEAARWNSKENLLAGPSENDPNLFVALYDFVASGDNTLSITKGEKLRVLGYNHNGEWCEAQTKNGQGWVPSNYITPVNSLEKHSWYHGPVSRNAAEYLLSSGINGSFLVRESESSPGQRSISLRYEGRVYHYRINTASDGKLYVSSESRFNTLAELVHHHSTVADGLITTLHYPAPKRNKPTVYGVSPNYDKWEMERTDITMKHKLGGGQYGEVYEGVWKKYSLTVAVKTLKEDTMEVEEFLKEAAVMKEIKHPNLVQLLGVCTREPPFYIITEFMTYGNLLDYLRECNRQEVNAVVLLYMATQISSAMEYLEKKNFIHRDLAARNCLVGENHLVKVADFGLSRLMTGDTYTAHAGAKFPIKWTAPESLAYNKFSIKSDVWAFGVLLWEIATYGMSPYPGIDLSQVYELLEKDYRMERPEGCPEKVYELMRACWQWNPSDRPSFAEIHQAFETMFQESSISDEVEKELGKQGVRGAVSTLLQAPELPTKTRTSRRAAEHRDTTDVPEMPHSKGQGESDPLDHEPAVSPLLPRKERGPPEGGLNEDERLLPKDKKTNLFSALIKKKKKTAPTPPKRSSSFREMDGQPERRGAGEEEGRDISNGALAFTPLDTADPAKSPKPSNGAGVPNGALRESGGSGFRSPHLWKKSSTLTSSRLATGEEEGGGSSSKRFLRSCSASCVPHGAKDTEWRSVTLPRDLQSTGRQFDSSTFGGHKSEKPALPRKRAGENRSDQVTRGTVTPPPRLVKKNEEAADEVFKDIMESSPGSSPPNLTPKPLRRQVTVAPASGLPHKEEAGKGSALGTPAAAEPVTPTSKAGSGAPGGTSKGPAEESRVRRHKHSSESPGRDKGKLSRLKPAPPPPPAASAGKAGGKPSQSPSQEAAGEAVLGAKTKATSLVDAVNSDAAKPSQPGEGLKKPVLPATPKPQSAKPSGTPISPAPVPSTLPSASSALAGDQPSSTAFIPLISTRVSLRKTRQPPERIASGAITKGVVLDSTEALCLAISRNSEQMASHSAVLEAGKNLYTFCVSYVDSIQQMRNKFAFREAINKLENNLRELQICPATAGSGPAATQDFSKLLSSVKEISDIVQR

For the molecule `C=CC(=O)N1CCCC(c2c(F)cc(C(N)=O)c3[nH]c4c(c23)CCCCC4)C1` (single isomer, unassigned) [Compound 5-6], the inhibition at 1 µM is -14.6% in experiment [1]; -13.2% in experiment [2]; 10% in experiment [3]; -9.3% in experiment [4]; 10.1% in experiment [5]; 2.5% in experiment [6].

Turning to `C=CC(=O)N1CCC[C@@H](c2c(F)cc(C(N)=O)c3[nH]c4c(c23)CC2(CC4)CC2)C1` [Compound 6-2, (S)-5-(1-acryloylpiperidin-3-yl)-6-fluoro-1,2,4,9-tetrahydrospiro[carbazole-3,1′-cyclopropane]-8-carboxamide], the inhibition at 1 µM in experiment [1] is 2.5%; in experiment [2], -37.5%; in experiment [3], -15.3%; in experiment [4] it was 18%; in experiment [5], 64.5%; in experiment [6] it was 10.9%.

As for `C=CC(=O)N1CCC[C@@H](c2c(F)cc(C(N)=O)c3[nH]c4c(c23)CCC4)C1` [Compound 10-2, (S)-8-(1-acryloylpiperidin-3-yl)-7-fluoro-1,2,3,4-tetrahydrocyclo-penta[b]indole-5-carboxamide], the inhibition at 1 µM is 3.1% in experiment [1]; 2.9% in experiment [2]; -19.1% in experiment [3]; 2.4% in experiment [4]; 75% in experiment [5]; 3.3% in experiment [6].
